# Reference: patent publication EP0137294A2, “Gonadoliberin and gonadoliberin agonists in the treatment of metabolic diseases due to too small a parathormone level” (HOECHST AKTIENGESELLSCHAFT, priority 1983, dated 1985)
# Entries after “also recorded” stand apart in the source; their conditions may differ.
# Columns and labels:
# Parathormon = assay: Plasma levels of parathormone and Ca2+ in Ca2+-infused anaesthetised rats after i.v. injection; assay type: in vivo, Wistarratten; conditions: for Stimulierung des PTH: Ratten
# Excerpt: (§1) In Ratten wurde durch eine Ca^2+-Gluconat-Infusion der Plasma-Ca^2+-Spiegel erhöht. Durch diese Infusion wird der PTH-Spiegel suppremiert (The New England J. Med. 307, 1982, S. 226 - 228). Eine Bolusinjektion der Gonadoliberinagonisten erhöhte jedoch signifikant den PTH-Spiegel gegenüber den Kontrollen und potenzierte das Plasma-Ca^2+. Das 30 Minuten nach der Injektion der Gonadoliberinagonisten erhöhte PTH bewirkte nach 60 Minuten einen signifikanten Serum-Ca^2+-Anstieg. Daß diese Beeinflußung des Plasma-Ca^2+-Spiegels durch endogenes PTH oder PTH selbst einen Einfluß auf den Blutdruck hat, wurde an einer Frau mit zu hohem Blutdruck überprüft. Nach einmaliger intranasaler Gabe von 100 mcg Gonadoliberin, was bei einer Resorptionsrate von 2 - 5 % also nur etwa 2 - 5 mcg resorbierten Gonadoliberins entspricht, konnte der erhöhte Blutdruck 8 Stunden lang stark gesenkt werden.
# Zwei Gruppen von je 31 Wistarratten wurden mit Pentobarbital (45 mg/kg i.p.) narkotisiert. Man entnahm von allen Tieren eine Blutprobe (Ausgangswert). […] Nach 30, 60, 90, 120 und 180 Minuten wurde ein Teil der Tiere getötet und entblutet. Das Blutserum wurde auf Ca^2+ und Parathormon untersucht.
# In beiden-Figuren ist bei den einzelnen Meßpunkten die Anzahl n der Messungen sowie die Standardabweichung des Meßwertes (graphisch) angegeben.
# [1] = Blood pressure lowering in a hypertensive person after intranasal dosing; assay type: in vivo, Mensch; conditions: for systolischer Blutdruck: hypertensive person, 100 µg intranasal, baseline etwa 150 mm Hg
# Excerpt: as §1
# Eine hypertensive, 48 Jahre alte Frau, deren Bluthochdruck mit ß-Blockern behandelt wird, setzte ihre Be-.handlung am Versuchstag aus. Versuchsbeginn: 17.00 Uhr.
# Der systolische Blutdruck von etwa 150 mm Hg sank nach intranasaler Gabe von 100 µg Gonadoliberin innerhalb von 30 Minuten auf etwa 125 mm Hg, blieb 90 Minuten bei 125 mm Hg und stieg dann für die nächsten 4 Stunden auf 130 mm Hg. Nach einer 8-stündigen Bettruhe, während der die Versuchsperson ausgezeichnet schlief, war der Blutdruck auf etwa 137 mm Hg gestiegen.
# [2] = Treatment of muscle pain (McArdle-Erkrankung) in a person, intranasal dosing; assay type: in vivo, Mensch
# Excerpt: […] mit starken Muskelschmerzen am Oberarm (McArdle-Erkrankung) gab man 100 mcg Gonadoliberin intra- nasal. Die starken Dauerschmerzen verschwanden nach etwa 15 Minuten. Am Anfang der Behandlung wurde mehrmals täglich (3 mal), später 2 mal und dann nur noch einmal täglich appliziert um einer Tachyphylaxie vorzubeugen. […] Der anfangs sehr schwache Blutdruck der Patientin von 90/60 wurde interessanterweise nicht weiter gesenkt, sondern leicht erhöht, so daß er sich während der Therapie auf 110/65 einpendelte. Diese kleinen Gonadoliberindosen wirken also nicht generell blutdrucksenkend ', sondern können auch bei niedrigem Blutdruck blutdruckerhöhend wirken.
# Eine Frau, 46 Jahre alt, hatte starke Schmerzen im Oberarm. Der Arm konnte nicht vom Körper weg bewegt werden. Nach einer intranasalen Applikation von 100 µg Gonadoliberin war der Dauerschmerz in Ruhehaltung verschwunden. Der sehr schwache Blutdruck von 90/60 stieg während der Behandlung mit Gonadoliberin auf 110/65. Am ersten Tag wurde insgesamt 3 mal, am zweiten und dritten Tag 2 mal und am vierten und folgenden Tagen nur noch einmal täglich am Morgen therapiert. Im Lauf der Therapie wurden auch die Bewegungsschmerzen weniger und der Arm konnte wieder normal bewegt werden.
# [3] = Intranasal absorption of Gonadoliberin; assay type: in vivo, Mensch; conditions: intranasal dose of 100 mcg, calculated from the Resorptionsrate
# [4] = je nach Test; literature (Vitamins and Hormons 38, 1980; J. Med. Chem. 25, 1982); cited from earlier work
# Plasma-Glucose = conditions: Kaninchen, Glucosebolus 500 mg/kg i.v.; 5 ng/kg i.v.; after 70 - 90 Minuten; Verum-Gruppe vs Placebo-Gruppe
# Procedure: Der Einfluß auf den Blutzucker. wurde zunächst an Kaninchen überprüft. Kaninchen wurden zur Hemmung des endogen Glucagons mit einem Glucosebolus versehen.
# Je 3 wachen Kaninchen gab man einen Glucosebolus (500 mg/ kg i.v.). […] Nach 10, 30, 40, 50, 60, 70, 80 und 90 Minuten wurde Blut abgenommen und daraus die Blutglucose bestimmt.
# Bei den einzelnen Meßpunkten ist jeweils graphisch die Standardabweichung des Meßwertes angegeben (n ist jeweils 3).
# [5] = person with high blood pressure, single intranasal dose of 100 mcg
compound,measurement,setting,value
CC(C)C[C@H](NC(=O)CNC(=O)[C@H](Cc1ccc(O)cc1)NC(=O)[C@H](CO)NC(=O)[C@H](Cc1c[nH]c2ccccc12)NC(=O)[C@H](Cc1cnc[nH]1)NC(=O)[C@@H]1CCC(=O)N1)C(=O)N[C@@H](CCCNC(=N)N)C(=O)N1CCC[C@H]1C(=O)NCC(N)=O [Gonadoliberin],Stimulierung des PTH,Parathormon; dose 50 ng/kg,stimulieren
same,systolischer Blutdruck,[1]; after a subsequent 8-hour bed rest,~137 mm Hg
same,systolischer Blutdruck,[1]; maintained for 90 Minuten after the fall,125 mm Hg
same,systolischer Blutdruck,[1]; the following 4 Stunden,130 mm Hg
same,systolischer Blutdruck,[1]; within 30 Minuten,~125 mm Hg
same,duration of blood pressure lowering,[1]; [5],8 Stunden
same,erhöhter Blutdruck,[1]; [5],stark gesenkt
same,time until the starke Dauerschmerzen disappeared,"[2]; person with muscle pain in the upper arm (McArdle-Erkrankung), 100 mcg intranasal",~15 Minuten
same,Bewegungsschmerzen / movement of the arm,"[2]; person with muscle pain, 100 µg intranasal 3 to 1 times daily, in the course of therapy",ohne Schmerzen bewegt; also recorded: weniger
same,Blutdruck,"[2]; person with muscle pain, 100 µg intranasal, during therapy, baseline 90/60",110/65
same,Dauerschmerz in Ruhehaltung,"[2]; person, upper arm pain, 100 µg intranasal",verschwunden
same,resorbiertes Gonadoliberin,[3],2 to 5 µg
CC(C)C[C@H](NC(=O)[C@@H](Cc1ccc2ccccc2c1)NC(=O)[C@H](Cc1ccc(O)cc1)NC(=O)[C@H](CO)NC(=O)[C@H](Cc1c[nH]c2ccccc12)NC(=O)[C@H](Cc1cnc[nH]1)NC(=O)[C@@H]1CCC(=O)N1)C(=O)N[C@@H](CCCNC(=N)N)C(=O)N1CCC[C@H]1C(=O)NCC(N)=O [[D-3-(2-Naphthyl)-Ala^6] Gonadoliberin],Wirkung relative to Gonadoliberin (mal stärker),[4],noch höhere Aktivitäten
Cc1cc(C)c(C[C@@H](NC(=O)[C@H](Cc2ccc(O)cc2)NC(=O)[C@H](CO)NC(=O)[C@H](Cc2c[nH]c3ccccc23)NC(=O)[C@H](Cc2cnc[nH]2)NC(=O)[C@@H]2CCC(=O)N2)C(=O)N[C@@H](CC(C)C)C(=O)N[C@@H](CCCNC(=N)N)C(=O)N2CCC[C@H]2C(=O)NCC(N)=O)c(C)c1 [[D-3-(2.4.6.Trimethylphenyl)-Ala^6]-Gonadoliberin],Wirkung relative to Gonadoliberin (mal stärker),[4],noch höhere Aktivitäten
[D-Ser(Bu^t) ^6] Gonadoliberin-(1-9)-nonapeptid-ethylamid [Buserelin],Stimulierung des PTH,Parathormon; dose 5 ng/kg,stimulieren
same,Parathormon im Blutserum,"Parathormon; Wistarratten, Ca2+-Infusion 30 mg/kg/h, 5 ng/kg i.v., after 30 Minuten, Verum-Gruppe vs Placebogruppe",signifikant an
same,Ca^2+-Spiegel im Blutserum,"Parathormon; Wistarratten, Ca2+-Infusion 30 mg/kg/h, 5 ng/kg i.v., after 60 Minuten, Verum-Gruppe vs Placebogruppe",deutlich erhöht
same,Blutglucosewerte,Plasma-Glucose,signifikant erhöht
